Source: PubChem BioAssay (NCI)
Where “and” joins values, the source holds several entries; their conditions need not be identical. Identical values can stand only once.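 Values below derive from 48-hour exposures of cells grown in 96-well plates, with endpoints linearly interpolated between the two concentrations bracketing the appropriate inhibition level. Abbreviation: GI50, concentration required for 50% inhibition of growth. TGI: concentration producing complete growth inhibition.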

Legend:
Assay in all cases: NCI-60 cell line screen, 48 h
[1] = tested on: A498 renal
[2] = tested on: A549 NSCLC
[3] = tested on: ACHN renal
[4] = tested on: CAKI-1 renal
[5] = tested on: COLO 205 colon
[6] = tested on: DLD-1 colon
[7] = tested on: DMS 273 small cell lung
[8] = tested on: EKVX NSCLC
[9] = tested on: HCC-2998 colon
[10] = tested on: HCT-116 colon
[11] = tested on: HCT-15 colon
[12] = tested on: HL-60(TB) leukemia
[13] = tested on: HOP-18 NSCLC
[14] = tested on: HOP-62 NSCLC
[15] = tested on: HOP-92 NSCLC
[16] = tested on: HT29 colon
[17] = tested on: IGROV1 ovarian
[18] = tested on: K-562 leukemia
[19] = tested on: KM12 colon
[20] = tested on: KM20L2 colon
[21] = tested on: LOX IMVI melanoma
[22] = tested on: LXFL 529 NSCLC
[23] = tested on: M19-MEL melanoma
[24] = tested on: MALME-3M melanoma
[25] = tested on: MOLT-4 leukemia
[26] = tested on: NCI-H23 lung
[27] = tested on: NCI-H460 lung
[28] = tested on: NCI-H522 lung
[29] = tested on: OVCAR-3 ovarian
[30] = tested on: OVCAR-5 ovarian
[31] = tested on: OVCAR-8 ovarian
[32] = tested on: RPMI-8226 leukemia
[33] = tested on: SF-268 CNS
[34] = tested on: SF-295 CNS
[35] = tested on: SF-539 CNS
[36] = tested on: SK-MEL-2 melanoma
[37] = tested on: SK-MEL-28 melanoma
[38] = tested on: SK-MEL-5 melanoma
[39] = tested on: SK-OV-3 ovarian
[40] = tested on: SN12C renal
[41] = tested on: SNB-19 CNS
[42] = tested on: SNB-75 CNS
[43] = tested on: SNB-78 CNS
[44] = tested on: SR leukemia
[45] = tested on: SW-620 colon
[46] = tested on: TK-10 renal
[47] = tested on: U251 CNS
[48] = tested on: UACC-257 melanoma
[49] = tested on: UACC-62 melanoma
[50] = tested on: UO-31 renal
[51] = tested on: 786-0 renal
[52] = tested on: CCRF-CEM leukemia
[53] = tested on: DMS 114 small cell lung
[54] = tested on: M14 melanoma
[55] = tested on: NCI-H226 lung
[56] = tested on: OVCAR-4 ovarian
[57] = tested on: RXF 393 renal
[58] = tested on: XF 498 CNS

Q: Which GI50 [1] does the source give for `COc1cc(C2c3cc4c(cc3[C@@H](NCCCN(C)C)[C@H]3COC(=O)C23)OCO4)cc(OC)c1O` (some centres undefined) here?
A: 83.8 nM and 190 nM

Q: And the TGI [1]?
A: 327 nM and 696 nM

Q: What about the GI50 [2] of the same molecule?
A: 30 nM

Q: And the TGI [2]?
A: 712 nM

Q: And the TGI [3]?
A: 369 nM and 496 nM

Q: What about the GI50 [4] of the same molecule?
A: 59.9 nM and 227 nM

Q: And the TGI [4]?
A: 351 nM and 952 nM

Q: What about the GI50 [5] of the same molecule?
A: 714 nM and 1940 nM

Q: And the TGI [5]?
A: 3930 nM and 5780 nM

Q: And the GI50 [6]?
A: 1030 nM and 3780 nM

Q: And the TGI [6]?
A: 4010 nM and > 20000 nM

Q: What about the TGI [7] of the same molecule?
A: 2060 nM and 2610 nM

Q: What about the TGI [8] of the same molecule?
A: 1580 nM and 1290 nM

Q: What about the TGI [9] of the same molecule?
A: 1480 nM and 1350 nM

Q: And the TGI [10]?
A: 6140 nM

Q: What about the TGI [11] of the same molecule?
A: 1690 nM and 4630 nM

Q: And the TGI [12]?
A: 231 nM and 245 nM

Q: What about the GI50 [13] of the same molecule?
A: 3780 nM and 1180 nM

Q: What about the TGI [13] of the same molecule?
A: > 37500 nM and 16300 nM

Q: And the GI50 [14]?
A: 93.3 nM and 271 nM

Q: And the TGI [14]?
A: 297 nM and 925 nM

Q: What about the GI50 [15] of the same molecule?
A: 95.2 nM and 482 nM

Q: And the TGI [15]?
A: 368 nM and 1850 nM

Q: And the TGI [16]?
A: > 37500 nM and 6090 nM

Q: What about the TGI [17] of the same molecule?
A: 2030 nM and 4030 nM

Q: What about the GI50 [18] of the same molecule?
A: 831 nM and 413 nM

Q: And the TGI [18]?
A: > 37500 nM and 7840 nM

Q: And the TGI [19]?
A: 2260 nM and 3610 nM

Q: And the TGI [20]?
A: 2440 nM and 4440 nM

Q: What about the TGI [21] of the same molecule?
A: 927 nM and 2110 nM

Q: And the TGI [22]?
A: 25700 nM and > 20000 nM

Q: And the TGI [23]?
A: 2170 nM and 3350 nM

Q: And the TGI [24]?
A: 1070 nM and 1440 nM

Q: What about the TGI [25] of the same molecule?
A: 210 nM

Q: And the GI50 [26]?
A: 139 nM and 291 nM

Q: And the TGI [26]?
A: 759 nM and 1560 nM

Q: What about the TGI [27] of the same molecule?
A: 632 nM and 336 nM

Q: And the TGI [28]?
A: 1650 nM and 2470 nM

Q: And the TGI [29]?
A: 1790 nM and 3760 nM

Q: What about the TGI [30] of the same molecule?
A: 2590 nM and 5520 nM

Q: What about the GI50 [31] of the same molecule?
A: 333 nM and 1260 nM

Q: What about the TGI [31] of the same molecule?
A: 1200 nM and 5090 nM

Q: And the TGI [32]?
A: > 37500 nM and 5490 nM

Q: What about the GI50 [33] of the same molecule?
A: 202 nM and 591 nM

Q: And the TGI [33]?
A: 1510 nM and 7280 nM

Q: What about the TGI [34] of the same molecule?
A: 632 nM and 1420 nM

Q: What about the TGI [35] of the same molecule?
A: 1050 nM and 981 nM

Q: And the GI50 [36]?
A: 733 nM and 1960 nM

Q: What about the TGI [36] of the same molecule?
A: 1460 nM and 5090 nM

Q: And the GI50 [37]?
A: 764 nM and 2760 nM

Q: And the TGI [37]?
A: 2090 nM and 8620 nM

Q: And the TGI [38]?
A: 825 nM and 1150 nM

Q: And the TGI [39]?
A: 1260 nM and 1200 nM

Q: And the GI50 [40]?
A: 117 nM and 333 nM

Q: What about the TGI [40] of the same molecule?
A: 502 nM and 1140 nM

Q: And the TGI [41]?
A: 1450 nM and 1910 nM

Q: What about the GI50 [42] of the same molecule?
A: 393 nM and 838 nM

Q: And the TGI [42]?
A: 4210 nM and 6840 nM

Q: What about the GI50 [43] of the same molecule?
A: 2600 nM and 11600 nM

Q: And the TGI [43]?
A: > 37500 nM

Q: What about the GI50 [44] of the same molecule?
A: 354 nM and 54.4 nM

Q: What about the TGI [45] of the same molecule?
A: 1180 nM and 4270 nM

Q: What about the GI50 [46] of the same molecule?
A: 992 nM and 2860 nM

Q: And the TGI [46]?
A: 5170 nM and 7610 nM

Q: What about the TGI [47] of the same molecule?
A: 2150 nM and 1900 nM

Q: And the GI50 [48]?
A: 1030 nM and 2100 nM

Q: What about the TGI [48] of the same molecule?
A: 7250 nM and 10300 nM

Q: And the GI50 [49]?
A: 112 nM and 288 nM

Q: What about the TGI [49] of the same molecule?
A: 643 nM and 924 nM

Q: And the TGI [50]?
A: 1100 nM and 1720 nM

Q: Which results are given for `CCN(CC)c1cccc2c1C1(O)CCC3(CC21)OCCCCO3` (centres undefined)?
A: TGI [51]: > 100000 nM; TGI [1]: > 100000 nM; TGI [2]: > 100000 nM; TGI [3]: > 100000 nM; TGI [4]: > 100000 nM; TGI [52]: > 100000 nM; TGI [5]: > 100000 nM; TGI [6]: > 100000 nM; TGI [53]: > 100000 nM; TGI [7]: > 100000 nM; TGI [9]: > 100000 nM; TGI [10]: > 100000 nM; TGI [11]: > 100000 nM; TGI [12]: > 100000 nM; TGI [13]: > 100000 nM; TGI [14]: > 100000 nM; TGI [16]: > 100000 nM; TGI [17]: > 100000 nM; TGI [18]: > 100000 nM; TGI [19]: > 100000 nM; TGI [20]: > 100000 nM; TGI [21]: > 100000 nM; TGI [22]: > 100000 nM; TGI [54]: > 100000 nM; TGI [23]: > 100000 nM; TGI [24]: > 100000 nM; TGI [25]: > 100000 nM; TGI [55]: > 100000 nM; TGI [26]: > 100000 nM; TGI [27]: > 100000 nM; TGI [28]: > 100000 nM; TGI [29]: > 100000 nM; TGI [56]: > 100000 nM; TGI [30]: > 100000 nM; TGI [31]: > 100000 nM; TGI [32]: > 100000 nM; TGI [57]: 53600 nM; TGI [33]: > 100000 nM; TGI [34]: > 100000 nM; TGI [35]: > 100000 nM; TGI [36]: > 100000 nM; TGI [37]: > 100000 nM; TGI [38]: > 100000 nM; TGI [39]: > 100000 nM; TGI [40]: > 100000 nM; TGI [41]: 41000 nM; TGI [42]: > 100000 nM; TGI [43]: > 100000 nM; TGI [45]: > 100000 nM; TGI [46]: > 100000 nM; TGI [47]: > 100000 nM; TGI [48]: > 100000 nM; TGI [50]: > 100000 nM

Q: Which results are given for `O=C1C[C@H]2CC3(CC[C@H]2CN1)OCCO3`?
A: TGI [51]: > 100000 nM; TGI [1]: > 100000 nM; TGI [2]: > 100000 nM; TGI [4]: > 100000 nM; TGI [52]: > 100000 nM; TGI [5]: > 100000 nM; TGI [6]: > 100000 nM; TGI [7]: > 100000 nM; TGI [8]: > 100000 nM; TGI [9]: > 100000 nM; TGI [10]: > 100000 nM; TGI [11]: > 100000 nM; TGI [12]: > 100000 nM; TGI [14]: > 100000 nM; TGI [15]: > 100000 nM; TGI [16]: > 100000 nM; TGI [17]: > 100000 nM; TGI [18]: > 100000 nM; TGI [19]: > 100000 nM; TGI [21]: > 100000 nM; TGI [22]: > 100000 nM; TGI [54]: > 100000 nM; TGI [23]: > 100000 nM; TGI [24]: > 100000 nM; TGI [25]: > 100000 nM; TGI [26]: > 100000 nM; TGI [27]: > 100000 nM; TGI [28]: > 100000 nM; TGI [29]: > 100000 nM; TGI [56]: > 100000 nM; TGI [31]: > 100000 nM; TGI [32]: > 100000 nM; TGI [57]: > 100000 nM; TGI [33]: > 100000 nM; TGI [34]: > 100000 nM; TGI [35]: > 100000 nM; TGI [36]: > 100000 nM; TGI [37]: > 100000 nM; TGI [38]: > 100000 nM; TGI [39]: > 100000 nM; TGI [40]: > 100000 nM; TGI [41]: > 100000 nM; TGI [42]: > 100000 nM; TGI [43]: > 100000 nM; TGI [45]: > 100000 nM; TGI [46]: > 100000 nM; TGI [47]: > 100000 nM; TGI [48]: > 100000 nM; TGI [49]: > 100000 nM; TGI [50]: > 100000 nM; TGI [58]: > 100000 nM
